In PMC9030254, “Target Hopping from Protein Kinases to PXR: Identification of Small-Molecule Protein Kinase Inhibitors as Selective Modulators of Pregnane X Receptor from TüKIC Library” (Cells, 2022) one finds Residual activity and inhibition data, which are given here for two molecules.

A word on the inhibition: it is the percentage by which the read-out fell short of the control.

Each structure is given as a SMILES string. Some results are limits rather than exact numbers.

What all share (test): Kinase profiling
Type in all cases: biochemical

The target in experiment [1] is T1, NEK9 (Homo sapiens, UniProt Q8TD19).
T1 construct: purchased ProQinase (Freiburg, Germany)
T1 sequence (Q8TD19 1-979): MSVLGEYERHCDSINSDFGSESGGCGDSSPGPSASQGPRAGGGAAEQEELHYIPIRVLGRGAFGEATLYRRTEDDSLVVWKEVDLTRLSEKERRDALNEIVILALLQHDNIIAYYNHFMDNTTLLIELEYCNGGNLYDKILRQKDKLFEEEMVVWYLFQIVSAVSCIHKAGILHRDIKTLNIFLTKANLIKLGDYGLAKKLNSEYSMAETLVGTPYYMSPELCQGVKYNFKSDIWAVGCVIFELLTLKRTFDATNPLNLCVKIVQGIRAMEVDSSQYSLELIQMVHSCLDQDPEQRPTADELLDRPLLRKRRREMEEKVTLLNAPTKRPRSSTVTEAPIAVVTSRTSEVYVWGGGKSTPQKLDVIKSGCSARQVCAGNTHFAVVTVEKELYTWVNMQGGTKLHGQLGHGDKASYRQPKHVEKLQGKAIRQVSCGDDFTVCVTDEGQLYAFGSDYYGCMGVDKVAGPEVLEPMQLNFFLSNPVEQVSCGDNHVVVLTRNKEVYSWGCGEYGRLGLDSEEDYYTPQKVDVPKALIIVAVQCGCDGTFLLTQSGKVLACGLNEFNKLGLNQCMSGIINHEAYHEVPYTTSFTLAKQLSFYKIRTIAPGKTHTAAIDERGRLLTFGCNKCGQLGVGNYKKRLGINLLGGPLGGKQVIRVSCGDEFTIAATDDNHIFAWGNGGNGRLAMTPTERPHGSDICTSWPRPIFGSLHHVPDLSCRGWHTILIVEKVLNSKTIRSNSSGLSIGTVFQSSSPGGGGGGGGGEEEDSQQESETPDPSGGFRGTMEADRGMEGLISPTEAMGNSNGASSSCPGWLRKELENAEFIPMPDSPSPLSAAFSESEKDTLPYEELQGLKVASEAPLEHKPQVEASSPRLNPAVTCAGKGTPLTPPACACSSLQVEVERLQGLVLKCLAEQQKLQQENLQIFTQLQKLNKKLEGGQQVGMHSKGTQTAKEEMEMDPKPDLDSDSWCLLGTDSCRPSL
How it is done: (§1) The analysis was performed by ProQinase (Freiburg, Germany).

Experiment [2] has as its target T2, CDK2/CycA2 (Homo sapiens, UniProt P24941).
T2 construct: purchased ProQinase (Freiburg, Germany)
How it is done: as §1

Experiment [3] deals with T3, PKCzeta (Homo sapiens, UniProt Q05513).
T3 construct: purchased ProQinase (Freiburg, Germany)
T3 sequence (Q05513 1-592): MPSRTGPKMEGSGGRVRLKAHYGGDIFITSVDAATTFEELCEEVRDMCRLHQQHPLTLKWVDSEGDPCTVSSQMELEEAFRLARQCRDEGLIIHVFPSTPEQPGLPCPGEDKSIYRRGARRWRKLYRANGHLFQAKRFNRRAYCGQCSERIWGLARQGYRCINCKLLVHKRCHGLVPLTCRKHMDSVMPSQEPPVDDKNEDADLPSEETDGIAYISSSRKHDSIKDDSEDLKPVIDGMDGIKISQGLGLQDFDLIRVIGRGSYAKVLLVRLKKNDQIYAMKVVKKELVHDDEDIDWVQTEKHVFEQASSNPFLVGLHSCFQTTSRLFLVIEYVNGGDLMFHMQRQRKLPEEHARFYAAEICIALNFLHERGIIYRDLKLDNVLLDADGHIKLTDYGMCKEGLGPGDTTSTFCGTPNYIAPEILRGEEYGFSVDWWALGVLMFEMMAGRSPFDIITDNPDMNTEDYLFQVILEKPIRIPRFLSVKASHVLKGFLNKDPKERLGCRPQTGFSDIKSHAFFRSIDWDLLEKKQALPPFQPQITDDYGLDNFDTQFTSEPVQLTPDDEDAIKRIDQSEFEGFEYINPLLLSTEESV
How it is done: as §1

Experiment [4] deals with T4, LIMK1 (Homo sapiens, UniProt P53667).
T4 construct: purchased ProQinase (Freiburg, Germany)
How it is done: as §1

The target in experiment [5] is T5, GRK2 (Homo sapiens, UniProt P25098).
T5 construct: purchased ProQinase (Freiburg, Germany)
T5 sequence (P25098 1-689): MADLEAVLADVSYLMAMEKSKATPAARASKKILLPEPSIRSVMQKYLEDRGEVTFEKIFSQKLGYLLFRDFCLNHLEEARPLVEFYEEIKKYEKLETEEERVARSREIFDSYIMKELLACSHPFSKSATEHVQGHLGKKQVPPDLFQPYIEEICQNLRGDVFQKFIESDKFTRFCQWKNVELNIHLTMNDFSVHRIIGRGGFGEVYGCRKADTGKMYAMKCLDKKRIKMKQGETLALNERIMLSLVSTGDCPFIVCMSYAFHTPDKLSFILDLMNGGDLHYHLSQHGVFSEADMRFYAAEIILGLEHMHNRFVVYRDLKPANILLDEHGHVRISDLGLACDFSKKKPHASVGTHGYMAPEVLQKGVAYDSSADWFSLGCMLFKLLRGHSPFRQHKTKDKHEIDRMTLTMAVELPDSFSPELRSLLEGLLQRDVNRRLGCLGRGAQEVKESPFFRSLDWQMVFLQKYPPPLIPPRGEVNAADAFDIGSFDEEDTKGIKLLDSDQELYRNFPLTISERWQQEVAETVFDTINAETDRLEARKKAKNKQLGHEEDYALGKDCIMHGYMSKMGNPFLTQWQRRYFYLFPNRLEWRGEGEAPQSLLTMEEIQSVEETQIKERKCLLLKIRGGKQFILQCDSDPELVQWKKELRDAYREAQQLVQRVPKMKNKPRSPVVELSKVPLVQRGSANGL
On the procedure:
as §1

The target of experiment [6] is T6, JNK2 (Homo sapiens, UniProt P45984).
T6 construct: purchased ProQinase (Freiburg, Germany)
On the procedure:
as §1

In experiment [7] the target is T7, CK1epsilon (Homo sapiens, UniProt P49674).
T7 construct: purchased ProQinase (Freiburg, Germany)
How it is done:
as §1

In experiment [8] the target is T8, RIPK2 (Homo sapiens, UniProt O43353).
T8 construct: purchased ProQinase (Freiburg, Germany)
How it is done:
as §1

Experiment [9] concerns the target T9, CAMK2A (Homo sapiens, UniProt Q9UQM7).
T9 construct: purchased ProQinase (Freiburg, Germany)
On the procedure: as §1

For experiment [10], the target named is T10, CLK4 (Homo sapiens, UniProt Q9HAZ1).
T10 construct: purchased ProQinase (Freiburg, Germany)
On the procedure: as §1

For experiment [11], the target named is T11, LRRK2 (Homo sapiens, UniProt Q5S007).
T11 construct: purchased ProQinase (Freiburg, Germany)
On the procedure: as §1

T7 sequence (P49674 whole entry): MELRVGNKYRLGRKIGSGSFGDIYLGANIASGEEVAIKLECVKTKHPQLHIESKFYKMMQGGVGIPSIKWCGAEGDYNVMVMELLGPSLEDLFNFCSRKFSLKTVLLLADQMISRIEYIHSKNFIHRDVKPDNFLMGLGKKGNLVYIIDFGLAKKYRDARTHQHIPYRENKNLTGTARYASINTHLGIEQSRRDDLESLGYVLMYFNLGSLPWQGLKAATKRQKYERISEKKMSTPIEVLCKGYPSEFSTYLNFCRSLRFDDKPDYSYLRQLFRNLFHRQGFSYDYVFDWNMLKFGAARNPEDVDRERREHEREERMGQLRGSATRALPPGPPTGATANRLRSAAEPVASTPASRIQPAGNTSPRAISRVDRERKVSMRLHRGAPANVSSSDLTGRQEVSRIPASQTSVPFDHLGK
T8 sequence (O43353 whole entry): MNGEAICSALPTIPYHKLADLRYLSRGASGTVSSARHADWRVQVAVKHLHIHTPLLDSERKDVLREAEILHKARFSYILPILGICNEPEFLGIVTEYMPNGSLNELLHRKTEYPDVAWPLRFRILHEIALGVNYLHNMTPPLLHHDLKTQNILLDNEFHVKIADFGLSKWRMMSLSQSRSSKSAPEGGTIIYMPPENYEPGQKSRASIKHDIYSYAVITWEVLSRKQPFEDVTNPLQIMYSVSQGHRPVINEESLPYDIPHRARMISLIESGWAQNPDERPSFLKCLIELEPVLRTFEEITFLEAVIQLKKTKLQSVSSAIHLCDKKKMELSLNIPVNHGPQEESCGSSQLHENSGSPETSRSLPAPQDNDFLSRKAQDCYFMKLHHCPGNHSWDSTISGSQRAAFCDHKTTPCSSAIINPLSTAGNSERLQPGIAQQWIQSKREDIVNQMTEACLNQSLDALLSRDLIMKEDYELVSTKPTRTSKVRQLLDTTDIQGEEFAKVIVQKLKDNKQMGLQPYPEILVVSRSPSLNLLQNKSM
T10 sequence (Q9HAZ1 whole entry): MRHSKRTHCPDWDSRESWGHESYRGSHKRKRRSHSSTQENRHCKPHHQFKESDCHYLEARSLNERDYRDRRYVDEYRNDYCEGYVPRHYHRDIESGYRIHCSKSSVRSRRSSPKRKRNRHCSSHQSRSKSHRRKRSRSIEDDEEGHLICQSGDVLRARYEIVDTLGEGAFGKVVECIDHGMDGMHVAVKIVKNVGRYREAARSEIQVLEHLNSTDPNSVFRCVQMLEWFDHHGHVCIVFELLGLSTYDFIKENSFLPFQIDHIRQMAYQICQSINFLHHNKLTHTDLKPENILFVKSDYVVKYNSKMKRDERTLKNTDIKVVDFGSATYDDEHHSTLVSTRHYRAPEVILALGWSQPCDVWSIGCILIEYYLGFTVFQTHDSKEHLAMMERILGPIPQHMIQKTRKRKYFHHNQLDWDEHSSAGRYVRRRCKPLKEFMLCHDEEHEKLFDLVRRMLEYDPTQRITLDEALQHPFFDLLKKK
T9 sequence (Q9UQM7 whole entry): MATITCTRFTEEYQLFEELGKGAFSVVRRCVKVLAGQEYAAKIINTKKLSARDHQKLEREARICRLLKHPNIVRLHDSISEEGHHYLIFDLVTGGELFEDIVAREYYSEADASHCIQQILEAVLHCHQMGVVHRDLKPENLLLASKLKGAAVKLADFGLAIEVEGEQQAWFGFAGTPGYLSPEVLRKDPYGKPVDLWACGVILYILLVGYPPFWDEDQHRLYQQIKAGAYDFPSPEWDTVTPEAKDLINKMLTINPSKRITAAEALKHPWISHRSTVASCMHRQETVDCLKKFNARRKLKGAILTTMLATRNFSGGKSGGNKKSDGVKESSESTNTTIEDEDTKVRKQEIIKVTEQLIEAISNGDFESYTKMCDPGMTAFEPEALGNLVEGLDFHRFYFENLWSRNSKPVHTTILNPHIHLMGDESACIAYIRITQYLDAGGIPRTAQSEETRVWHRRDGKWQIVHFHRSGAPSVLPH
T11 sequence (Q5S007 whole entry): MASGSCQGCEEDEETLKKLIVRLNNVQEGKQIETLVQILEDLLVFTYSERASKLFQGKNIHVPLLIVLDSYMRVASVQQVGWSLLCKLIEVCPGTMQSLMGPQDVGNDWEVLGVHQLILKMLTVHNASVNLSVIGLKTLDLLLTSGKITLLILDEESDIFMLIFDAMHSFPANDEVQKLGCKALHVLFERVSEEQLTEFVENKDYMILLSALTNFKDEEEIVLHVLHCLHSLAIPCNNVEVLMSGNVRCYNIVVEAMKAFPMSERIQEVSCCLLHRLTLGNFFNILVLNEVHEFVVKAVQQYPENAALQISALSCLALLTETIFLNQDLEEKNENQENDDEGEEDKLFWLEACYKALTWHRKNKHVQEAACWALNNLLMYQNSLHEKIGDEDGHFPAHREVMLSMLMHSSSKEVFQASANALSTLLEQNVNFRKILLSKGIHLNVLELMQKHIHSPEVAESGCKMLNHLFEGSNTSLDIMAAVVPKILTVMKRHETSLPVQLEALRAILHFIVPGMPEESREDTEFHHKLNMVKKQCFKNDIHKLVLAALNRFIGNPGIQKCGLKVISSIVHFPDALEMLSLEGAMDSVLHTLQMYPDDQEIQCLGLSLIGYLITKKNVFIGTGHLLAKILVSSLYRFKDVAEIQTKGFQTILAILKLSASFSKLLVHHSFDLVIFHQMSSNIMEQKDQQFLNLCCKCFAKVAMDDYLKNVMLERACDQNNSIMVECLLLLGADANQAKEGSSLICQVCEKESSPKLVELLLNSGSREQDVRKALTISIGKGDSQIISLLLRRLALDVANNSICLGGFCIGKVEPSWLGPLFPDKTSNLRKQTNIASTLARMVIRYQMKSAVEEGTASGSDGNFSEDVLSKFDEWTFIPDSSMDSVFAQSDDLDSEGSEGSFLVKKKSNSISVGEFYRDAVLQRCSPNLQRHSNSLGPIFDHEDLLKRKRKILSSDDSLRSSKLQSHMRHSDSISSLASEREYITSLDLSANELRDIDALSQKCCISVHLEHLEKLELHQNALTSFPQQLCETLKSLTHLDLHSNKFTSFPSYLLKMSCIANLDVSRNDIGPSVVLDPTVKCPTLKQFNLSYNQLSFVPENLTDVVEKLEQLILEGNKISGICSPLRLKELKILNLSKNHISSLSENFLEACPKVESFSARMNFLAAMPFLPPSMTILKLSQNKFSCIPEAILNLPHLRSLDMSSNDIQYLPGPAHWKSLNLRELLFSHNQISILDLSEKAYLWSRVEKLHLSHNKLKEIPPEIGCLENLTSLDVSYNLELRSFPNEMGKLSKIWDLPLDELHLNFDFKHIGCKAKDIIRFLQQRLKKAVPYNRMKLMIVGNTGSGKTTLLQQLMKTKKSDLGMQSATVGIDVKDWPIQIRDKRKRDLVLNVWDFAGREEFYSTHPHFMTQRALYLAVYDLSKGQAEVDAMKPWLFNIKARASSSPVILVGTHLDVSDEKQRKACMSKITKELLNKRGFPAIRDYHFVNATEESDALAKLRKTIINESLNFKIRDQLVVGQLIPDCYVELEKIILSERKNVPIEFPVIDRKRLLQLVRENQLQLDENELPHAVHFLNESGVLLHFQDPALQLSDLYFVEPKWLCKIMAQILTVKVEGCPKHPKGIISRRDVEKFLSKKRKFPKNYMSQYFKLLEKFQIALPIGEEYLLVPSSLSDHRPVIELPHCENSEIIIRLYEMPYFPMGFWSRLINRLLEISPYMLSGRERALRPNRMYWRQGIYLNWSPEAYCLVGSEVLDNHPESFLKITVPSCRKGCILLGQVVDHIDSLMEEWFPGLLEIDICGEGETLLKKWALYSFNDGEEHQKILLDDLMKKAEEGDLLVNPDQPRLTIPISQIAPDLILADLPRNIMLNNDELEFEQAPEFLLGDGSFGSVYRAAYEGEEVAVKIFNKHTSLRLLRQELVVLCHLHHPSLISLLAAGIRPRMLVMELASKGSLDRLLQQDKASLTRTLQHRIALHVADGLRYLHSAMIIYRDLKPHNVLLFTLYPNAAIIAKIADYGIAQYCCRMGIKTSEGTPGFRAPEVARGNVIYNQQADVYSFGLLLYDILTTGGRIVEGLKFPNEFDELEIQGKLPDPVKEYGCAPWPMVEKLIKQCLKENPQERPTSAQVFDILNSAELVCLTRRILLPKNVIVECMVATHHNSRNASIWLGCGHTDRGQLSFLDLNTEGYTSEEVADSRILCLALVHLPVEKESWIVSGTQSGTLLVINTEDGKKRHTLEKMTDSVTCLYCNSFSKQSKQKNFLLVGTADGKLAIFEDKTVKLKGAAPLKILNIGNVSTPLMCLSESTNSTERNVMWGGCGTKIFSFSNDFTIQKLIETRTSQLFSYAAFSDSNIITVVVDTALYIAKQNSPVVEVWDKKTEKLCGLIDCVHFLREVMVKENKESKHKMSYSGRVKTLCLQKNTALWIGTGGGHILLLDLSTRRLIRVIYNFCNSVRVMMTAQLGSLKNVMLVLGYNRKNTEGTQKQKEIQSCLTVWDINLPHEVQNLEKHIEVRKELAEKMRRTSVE
T4 sequence (P53667 whole entry): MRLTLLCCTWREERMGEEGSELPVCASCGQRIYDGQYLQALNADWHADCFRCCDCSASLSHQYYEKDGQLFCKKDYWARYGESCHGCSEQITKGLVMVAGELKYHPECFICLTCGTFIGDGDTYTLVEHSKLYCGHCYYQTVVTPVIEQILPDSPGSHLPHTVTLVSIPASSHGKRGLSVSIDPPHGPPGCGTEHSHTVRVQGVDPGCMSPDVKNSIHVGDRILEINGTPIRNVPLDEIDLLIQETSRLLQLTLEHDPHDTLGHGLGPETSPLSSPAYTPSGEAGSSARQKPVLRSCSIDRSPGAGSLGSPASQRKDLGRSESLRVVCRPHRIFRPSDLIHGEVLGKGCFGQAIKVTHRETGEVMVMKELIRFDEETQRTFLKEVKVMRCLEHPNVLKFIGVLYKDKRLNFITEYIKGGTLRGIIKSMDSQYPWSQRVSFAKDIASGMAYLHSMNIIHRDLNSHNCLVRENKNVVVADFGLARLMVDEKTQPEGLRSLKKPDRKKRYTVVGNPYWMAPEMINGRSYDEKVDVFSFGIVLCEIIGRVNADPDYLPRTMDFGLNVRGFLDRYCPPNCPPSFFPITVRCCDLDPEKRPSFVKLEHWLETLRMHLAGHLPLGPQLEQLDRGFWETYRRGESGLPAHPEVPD

Consider `O=C(Cc1ccccc1)Nc1ccc(F)c(Nc2ccc3c(c2)CCCCC3=O)c1` [Compound 100], for which the Residual activity is given as 93 % of control in [1] (1.0E-05 M); 86 % of control in [1] (1.0E-06 M); 106 % of control in experiment [2] (1.0E-05 M); 87 % of control in experiment [2] (1.0E-06 M); 102 % of control in experiment [3] (1.0E-05 M); 92 % of control in [3] (1.0E-06 M). Also, the Residual activity in experiment [4] (1.0E-05 M) is 87 % of control; in experiment [4] (1.0E-06 M), 102 % of control; in [5] (1.0E-05 M) it was 97 % of control; in [5] (1.0E-06 M) it was 97 % of control; in experiment [6] (1.0E-05 M), 79 % of control; in [6] (1.0E-06 M), 87 % of control. Further, the Residual activity in experiment [7] (1.0E-05 M) is reported as 117 % of control; in [7] (1.0E-06 M), 107 % of control; in [8] (1.0E-05 M), 89 % of control; in experiment [8] (1.0E-06 M), 104 % of control; in experiment [9] (1.0E-05 M), 94 % of control; in [9] (1.0E-06 M), 96 % of control. The Residual activity in [10] (1.0E-05 M) was 98 % of control; in [10] (1.0E-06 M) it was 103 % of control; in experiment [11] (1.0E-05 M), 92 % of control; in experiment [11] (1.0E-06 M), 89 % of control.

For `O=C(Nc1ccc(F)c(Nc2ccc3c(c2)CCCCC3=O)c1)c1cccc(F)c1` [Compound 109], the Residual activity in experiment [1] (1.0E-05 M) is on record as 81 % of control; in experiment [1] (1.0E-06 M) it was 96 % of control; in [2] (1.0E-05 M) it was 94 % of control; in [2] (1.0E-06 M) it was 83 % of control; in [3] (1.0E-05 M) it was 96 % of control; in experiment [3] (1.0E-06 M) it was 87 % of control. The Residual activity is listed as 96 % of control in experiment [4] (1.0E-05 M); 89 % of control in experiment [4] (1.0E-06 M); 88 % of control in experiment [5] (1.0E-05 M); 84 % of control in experiment [5] (1.0E-06 M); 97 % of control in experiment [6] (1.0E-05 M); 88 % of control in [6] (1.0E-06 M). Besides, the Residual activity in experiment [7] (1.0E-05 M) is 15 % of control; in experiment [7] (1.0E-06 M), 52 % of control; in experiment [8] (1.0E-05 M) it was 84 % of control; in [8] (1.0E-06 M), 99 % of control; in experiment [9] (1.0E-05 M), 91 % of control; in experiment [9] (1.0E-06 M), 95 % of control. For the same molecule, the Residual activity in experiment [10] (1.0E-05 M) was 108 % of control; in [10] (1.0E-06 M), 105 % of control; in [11] (1.0E-05 M) it was 90 % of control; in experiment [11] (1.0E-06 M), 94 % of control. In addition, the inhibition at 10 µM in experiment [7] (10 µM, read-out: inhibition of CK1-ε) was at least 50%.
